Source: patent US11910798B2, “Compositions including a vacancy-engineered (VE)-ZnO nanocomposite, methods of making the compositions and methods of using the compositions” (priority 2015, dated 2024)

Test system: E. coli
Assay: MIC against E. coli
Type: cell-based
Settings: Escherichia coli, read-out: MIC (μg/mL) in metallic Zn or Cu
Excerpt: Table 1 illustrates the minimum inhibitory concentration against E. coli for various agents.

With `O=C([O-])c1ccccc1O.[Na+]` [Capping Agent, sodium salicylate] the MIC was 3000 µg/mL.
